Reference: a melting point compilation (Tetko et al.; mined from patent text by program, amines drawn as free bases though some values may be those of a salt)

With `Clc1ccc2c(N3CCNCC3)n[nH]c2c1` the melting point was 135 to 137 °C. Compound `Oc1ccc(C2OCN3C2=CCC3CCc2ccccc2)cc1` (stereo not given) has a melting point of 176 °C. For `CCS(=O)(=O)N1CCN(CCCCCCNc2cc(OC)cc3c(C)ccnc23)CC1`, the melting point was 72 to 74 °C. Work on `COc1ccc(-c2csc(Nc3cccnc3)n2)cc1OC` yielded a melting point of 251 to 254 °C. `CCN(CC)c1cccc2c1OC1(CC1)C2=O` showed a melting point of 39.3 °C. In the case of `COC(=O)c1ccc(SC)c([N+](=O)[O-])c1`, the melting point is reported as 118 to 120 °C. In the case of `COc1ccc(C(=O)Nc2ccc(C)cc2)cc1NC(=S)Nc1cc(Cl)cc(Cl)c1`, the melting point is reported as 178 to 180 °C. In the case of `COc1c(CC(=O)O)cccc1CC(=O)O`, the melting point is reported as 184 to 186 °C. `NC(=O)c1[nH]c2ccc(Cl)cc2c1S(=O)(=O)c1ccc(Cl)cc1` showed a melting point of 275 to 277 °C. Compound `CC(=O)NCc1nc2c(N)nc3cccnc3c2n1CC(C)(C)O` has a melting point of 198 to 200 °C. Work on `C#CC(=CC(=O)O)c1ccccc1` yielded a melting point of 130 °C. Compound `CC1=C(C)C(=O)N(CC(=O)N2c3ccccc3N(Cc3ccccc3)C(=O)[C@H]3CCC[C@H]32)C1=O` (relative stereo) has a melting point of 196 to 200 °C. Work on `[N-]=[N+]=Cc1ccc([N+](=O)[O-])cc1` yielded a melting point of 80 to 82 °C. `Cc1cc(Cl)cc2c1OC(C(F)(F)F)C(C(=O)O)=C2` (stereo not given) showed a melting point of 232 to 233 °C. `C=CCOC(=O)c1ccccc1OS(=O)(=O)NC(=O)Nc1nc(OC)cc(OC)n1` gave a melting point of 110 to 112 °C. With `O=C(CC1(c2ccccc2)CCCC1)C(=O)Nc1ccc2c(c1)COC2=O` the melting point was 140 to 144 °C. In the case of `O=C(CI)OCc1ccc([N+](=O)[O-])cc1`, the melting point is reported as 62.5 to 63.5 °C. In the case of `Cc1c(CCc2ccc3nc(N)sc3c2)ncn1C(c1ccccc1)(c1ccccc1)c1ccccc1`, the melting point is reported as 200 to 203 °C. With `CC(=O)c1c(CN2CCOCC2)[nH]c2ccc(Cl)cc12` the melting point was 120 to 121 °C. Compound `Cc1cc(CCCCCOc2ccc(C3=NCCO3)cc2C(=O)O)on1` has a melting point of 170 to 171 °C. `CCCCN1C(=O)NC(C(C)O)C1=O` (stereo not given) showed a melting point of 145 °C. In the case of `COCCCc1nc(C(F)F)ccc1C(=O)O`, the melting point is reported as 86 to 87 °C. With `CCC1(CC)CN(C(C)(C)C)C(=O)C(CC)(CC)N1OC(=O)c1ccccc1` the melting point was 91 to 93 °C. `OC1CSC(Oc2cc(-c3cncnc3)cc(F)c2F)C(O)C1O` (stereo not given) showed a melting point of 191 °C. In the case of `COc1ccc2c(O)c(-c3ccccc3OC)c(=O)[nH]c2c1`, the melting point is reported as over 300 °C. Work on `CS(=O)(=O)c1ccc(Oc2ccc(C#N)cc2)nc1` yielded a melting point of 195 to 196 °C. With `CC(C)CN(C=NS(=O)(=O)c1c(Cl)nc2ccc(C3CC3)nn12)CC(C)C` the melting point was 154 to 160 °C. Work on `O=C(N[C@H]1CCCNC1=O)c1cc(F)ccc1F` yielded a melting point of 140 to 142 °C. `COC(=O)c1ccc2ccc(OC)cc2c1O` showed a melting point of 80 to 83 °C. `CNC(=O)c1cc(-c2ccc(OC)cc2)nn(CC=Cc2ccc(Cl)cc2)c1=O` showed a melting point of 184 to 185 °C. `CC12CCC3C(CCC4CC(O)CCC43C)C1CC=C2c1cccnc1` (stereo not given) gave a melting point of 198 to 199 °C. Compound `CCN1C(=O)C(NC(=O)C(F)(F)F)CCc2c1ccc(Nc1ncc(Cl)c(Nc3ccccc3S(=O)(=O)C(C)C)n1)c2OC` (stereo not given) has a melting point of 245 to 247 °C. Work on `CC(C)[C@@H](C(=O)N1C(=O)O[C@@H](c2ccccc2)[C@H]1C)[C@@H](O)[C@@H]1OC(C)(C)N(C(=O)OC(C)(C)C)[C@H]1CC1CCCCC1` yielded a melting point of 97 °C. In the case of `NC(=O)c1cn(CCO)nc1[N+](=O)[O-]`, the melting point is reported as 148 to 150 °C. `CCCCCCNc1cc(-c2nc(=O)c3ccccc3s2)ccn1` showed a melting point of 134 to 135 °C. `O=S1(=O)c2cccc3cccc(c23)N1CCN1CCC(CC2Cc3ccccc3C2)CC1` gave a melting point of 126 °C. For `CC1C(=O)Oc2c(Oc3ccccc3Cl)cccc21` (stereo not given), the melting point was 92 to 95 °C. With `CCCNC(=O)N1CCc2cc(S(=O)(=O)n3cc(-c4ccccc4)[nH]c3=O)ccc21` the melting point was 165 to 167 °C. In the case of `CN(C)C(=O)Nc1ccc(Oc2ccc(C(F)(F)F)cc2Cl)cc1`, the melting point is reported as 140 °C. With `CCOC(=O)C1=C(N)NC(c2ccccc2)=CC1c1cccc([N+](=O)[O-])c1` (stereo not given) the melting point was 171 to 172 °C.
